Laboratory results taken from patent publication US20100063302A1, “CYCLIC SULFONIUM SALT, METHOD FOR PRODUCTION OF CYCLIC SULFONIUM SALT, AND GLYCOSIDASE INHIBITOR” (Takano Co., Ltd., priority 2007, published 2010).
pIC50: −log10 of the molar value. Converted amounts (≈) assume the structure as drawn.

Tests used:
Assay type in all cases: biochemical
sucrase = biological target: T1, sucrase (Homo sapiens, UniProt P14410); test: α-glycosidase-inhibiting activity, sucrase (small intestinal brush border membrane vesicles); settings: substrate sucrose (74 mM), 0.1 M maleic acid buffer pH 6.0, 37° C., 30 minutes, glucose-oxidase method
T1 construct: suspending small intestinal brush border membrane vesicles in 0.1 M maleic acid buffer (pH 6.0); from tissue; host or cells: small intestinal brush border membrane vesicles
T1 sequence (P14410 whole entry, species assumed): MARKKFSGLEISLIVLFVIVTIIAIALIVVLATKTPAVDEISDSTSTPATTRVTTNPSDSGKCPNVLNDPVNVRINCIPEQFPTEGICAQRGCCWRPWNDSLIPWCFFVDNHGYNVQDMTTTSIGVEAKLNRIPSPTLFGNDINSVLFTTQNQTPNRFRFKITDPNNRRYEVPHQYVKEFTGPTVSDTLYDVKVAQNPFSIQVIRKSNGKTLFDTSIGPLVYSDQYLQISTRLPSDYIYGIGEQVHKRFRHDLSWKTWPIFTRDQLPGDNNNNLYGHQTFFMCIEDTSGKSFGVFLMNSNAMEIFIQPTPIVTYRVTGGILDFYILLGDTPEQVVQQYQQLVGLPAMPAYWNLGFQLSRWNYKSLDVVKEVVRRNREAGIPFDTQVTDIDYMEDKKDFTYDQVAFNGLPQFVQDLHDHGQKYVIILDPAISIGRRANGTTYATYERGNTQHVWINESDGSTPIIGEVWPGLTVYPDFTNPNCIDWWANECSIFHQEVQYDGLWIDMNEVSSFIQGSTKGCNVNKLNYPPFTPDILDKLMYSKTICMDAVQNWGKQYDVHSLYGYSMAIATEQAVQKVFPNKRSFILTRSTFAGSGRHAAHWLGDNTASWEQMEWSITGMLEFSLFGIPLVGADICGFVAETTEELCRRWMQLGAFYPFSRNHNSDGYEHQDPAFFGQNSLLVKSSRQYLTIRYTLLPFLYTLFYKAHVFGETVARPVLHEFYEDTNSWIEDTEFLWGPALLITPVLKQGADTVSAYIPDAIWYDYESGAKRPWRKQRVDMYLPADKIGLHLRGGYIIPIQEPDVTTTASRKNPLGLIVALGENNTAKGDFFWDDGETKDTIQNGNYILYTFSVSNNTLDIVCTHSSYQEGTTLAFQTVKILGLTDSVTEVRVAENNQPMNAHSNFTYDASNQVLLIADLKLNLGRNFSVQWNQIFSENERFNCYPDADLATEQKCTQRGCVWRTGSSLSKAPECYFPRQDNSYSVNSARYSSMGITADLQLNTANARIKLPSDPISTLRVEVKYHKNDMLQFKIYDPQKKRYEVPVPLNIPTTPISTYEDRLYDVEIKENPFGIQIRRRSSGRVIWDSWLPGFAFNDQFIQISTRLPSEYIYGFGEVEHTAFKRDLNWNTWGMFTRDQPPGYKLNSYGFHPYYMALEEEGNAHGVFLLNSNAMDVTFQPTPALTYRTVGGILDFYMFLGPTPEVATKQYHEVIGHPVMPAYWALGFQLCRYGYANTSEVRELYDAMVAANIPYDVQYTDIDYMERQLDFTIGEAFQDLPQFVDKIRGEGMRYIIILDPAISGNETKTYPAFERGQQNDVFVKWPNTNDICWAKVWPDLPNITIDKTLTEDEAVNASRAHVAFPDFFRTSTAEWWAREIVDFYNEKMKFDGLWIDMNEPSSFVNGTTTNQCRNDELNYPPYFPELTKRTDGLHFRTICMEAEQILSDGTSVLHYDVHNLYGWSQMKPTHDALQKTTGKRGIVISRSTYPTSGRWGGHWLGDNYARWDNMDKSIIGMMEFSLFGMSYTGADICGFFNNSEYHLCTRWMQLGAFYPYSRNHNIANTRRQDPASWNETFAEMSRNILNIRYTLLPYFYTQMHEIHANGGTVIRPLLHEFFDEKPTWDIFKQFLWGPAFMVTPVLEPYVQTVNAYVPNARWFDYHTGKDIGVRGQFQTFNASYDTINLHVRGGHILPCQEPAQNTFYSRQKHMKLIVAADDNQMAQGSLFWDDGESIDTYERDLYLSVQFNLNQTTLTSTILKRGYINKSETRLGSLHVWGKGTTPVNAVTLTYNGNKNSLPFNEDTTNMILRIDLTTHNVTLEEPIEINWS
Description: (§1) The compounds (6a), (6b), (6c) and (6d), each prepared by Example 25, as well as the compound (6g) prepared by Example 27 were each measured for α-glycosidase-inhibiting activity. […] To each of sucrose (74 mM), maltose (74 mM) and isomaltose (74 mM) solution as a substrate, there was added a solution (0.05 ml) of a test compound in various concentrations, and the resulting mixture was pre-heated at 37° C. for 2 to 3 minutes, followed by addition of an enzyme solution and reaction for 30 minutes. Thereafter, water was added and the resulting mixture was heated in a boiling water bath for 2 minutes in order to inactivate the enzyme. Separately, the enzyme solution was added to each of the test solutions and immediately thereafter heated in boiling water bath for 2 minutes to inactivate the enzyme. This solution was used as a blank. The amount of […] D-glucose was measured in accordance with glucose-oxidase method. The substrate and test compounds were used in a solution of 0.1 M maleic acid buffer (pH 6.0). A 50% inhibitory concentration (IC50) was calculated from the value observed.

isomaltase = biological target: T2, isomaltase (Homo sapiens, UniProt P14410); test: α-glycosidase-inhibiting activity, isomaltase (small intestinal brush border membrane vesicles); settings: substrate isomaltose (74 mM), 0.1 M maleic acid buffer pH 6.0, 37° C., 30 minutes, glucose-oxidase method
T2 construct: suspending small intestinal brush border membrane vesicles in 0.1 M maleic acid buffer (pH 6.0); from tissue; host or cells: small intestinal brush border membrane vesicles
T2 sequence (P14410 whole entry, species assumed): as above
Description: as §1

maltase = test: α-glycosidase-inhibiting activity, maltase (small intestinal brush border membrane vesicles); settings: substrate maltose (74 mM), 0.1 M maleic acid buffer pH 6.0, 37° C., 30 minutes, glucose-oxidase method
Description: as §1

Structure (SMILES) | pIC50 (sucrase) | pIC50 (isomaltase) | IC50, maltase (maltase) [µg/mL]
O=S(=O)([O-])OC(C(O)C[S+]1CC(O)C(O)C1CO)C(O)C(O)C(O)CO (single isomer, unassigned) [Compound (6a)] | 4.17 | 5.79 | 20.6 (≈ 48.5 µM)
O=S(=O)([O-])OC(C(O)C[S+]1CC(O)C(O)C1CO)C(O)C(O)C(O)CO (single isomer, unassigned) [Compound (6b)] | 3.87 | 4.97 | >100
O=S(=O)([O-])OC(C(O)C[S+]1CC(O)C(O)C1CO)C(O)C(O)C(O)CO (single isomer, unassigned) [Compound (6d)] | 4.49 | 5.19 | 24.8 (≈ 58.4 µM)
O=S(=O)([O-])OC(C(O)C[S+]1CC(O)C(O)C1CO)C(O)C(O)C(O)CO (single isomer, unassigned) [Compound (6g)] | < 3.63 | 3.80 | >100
O=S(=O)([O-])OC(C(O)C[S+]1CC(O)C(O)C1CO)C(O)C(O)C(O)CO (single isomer, unassigned) [kotalanol, reference compound] | 6.12 | 5.25 | 3.07 (≈ 7.23 µM)
O=S(=O)([O-])OC(C(O)C[S+]1CC(O)C(O)C1CO)C(O)C(O)C(O)CO (stereo not drawn) [Compound (6c)] | 3.67 | 4.79 | >100
